Tests used:
Assay type in all cases: in vivo
Conditions in all cases: 250 g/ha, evaluated after 13 days
[1] = test system: Amaranthus palmeri (AMAPA); test: Post-emergence herbicide glasshouse test
Protocol: (§1) Seeds of a variety of test species are sown in standard soil in pots Amaranthus palmeri (AMAPA), Amaranthus retoflexus (AMARE), Echinochloa crus-galli (ECHCG), Ipomoea hederacea (IPOHE)). After cultivation for one day (pre-emergence) or after 8 days cultivation (post-emergence) under controlled conditions in a glasshouse (at 24/16° C., day/night; 14 hours light; 65% humidity), the plants are sprayed with an aqueous spray solution derived from the formulation of the technical active ingredient in acetone/water (50:50) solution containing 0.5% Tween 20 (polyoxyethelyene sorbitan monolaurate, CAS RN 9005-64-5). Compounds are applied at 250 g/ha unless otherwise stated. The test plants are then grown in a glasshouse under controlled conditions in a glasshouse (at 24/16° C., day/night; 14 hours light; 65% humidity) and watered twice daily. After 13 days for pre and post-emergence, the test is evaluated for the percentage damage caused to the plant. The biological activities are shown in the following table on a five-point scale (5=81-100%; 4=61-80%; 3=41-60%; 2=21-40%; 1=0-20%).

[2] = test system: Amaranthus retoflexus (AMARE); test: Post-emergence herbicide glasshouse test
Protocol: as §1

[3] = test system: Echinochloa crus-galli (ECHCG); test: Post-emergence herbicide glasshouse test
Protocol: as §1

[4] = test system: Ipomoea hederacea (IPOHE); test: Post-emergence herbicide glasshouse test
Protocol: as §1

[5] = test system: Amaranthus palmeri (AMAPA); test: Pre-emergence herbicide glasshouse test
Protocol: as §1

[6] = test system: Amaranthus retoflexus (AMARE); test: Pre-emergence herbicide glasshouse test
Protocol: as §1

[7] = test system: Echinochloa crus-galli (ECHCG); test: Pre-emergence herbicide glasshouse test
Protocol: as §1

[8] = test system: Ipomoea hederacea (IPOHE); test: Pre-emergence herbicide glasshouse test
Protocol: as §1

| SMILES | percentage damage caused to the plant, AMAPA (five-point scale) [1] | percentage damage caused to the plant, AMARE (five-point scale) [2] | percentage damage caused to the plant, ECHCG (five-point scale) [3] | percentage damage caused to the plant, IPOHE (five-point scale) [4] | percentage damage caused to the plant, AMAPA (five-point scale) [5] | percentage damage caused to the plant, AMARE (five-point scale) [6] | percentage damage caused to the plant, ECHCG (five-point scale) [7] | percentage damage caused to the plant, IPOHE (five-point scale) [8] |
| --- | --- | --- | --- | --- | --- | --- | --- | --- |
| N#Cc1ccc(Cn2cc(C(F)(F)F)nc2-c2ccc(C(F)(F)F)cc2)s1 [Compound 1.001] | 4 (4=61-80%) | 4 (4=61-80%) | 2 (2=21-40%) | 3 (3=41-60%) | 5 (5=81-100%) | 4 (4=61-80%) | 2 (2=21-40%) | 2 (2=21-40%) |
| FC(F)(F)c1ccc(-c2nc(C(F)(F)F)cn2Cc2nsc(Cl)n2)cc1 [Compound 1.002] | 1 (1=0-20%) | 2 (2=21-40%) | 1 (1=0-20%) | 3 (3=41-60%) | 1 (1=0-20%) |  | 1 (1=0-20%) | 1 (1=0-20%) |
| Cn1cnc(Cn2cc(C(F)(F)F)nc2-c2ccc(C(F)(F)F)cc2)n1 [Compound 1.003, 1-methyl-3-[[4-(trifluoromethyl)-2-[4-(trifluoromethyl)phenyl]imidazol-1-yl]methyl]-1,2,4-triazole] | 4 (4=61-80%) | 4 (4=61-80%) | 4 (4=61-80%) | 5 (5=81-100%) | 5 (5=81-100%) | 5 (5=81-100%) | 5 (5=81-100%) | 5 (5=81-100%) |
| CC(C)(C)c1nc(Cn2cc(C(F)(F)F)nc2-c2ccc(C(F)(F)F)cc2)no1 [Compound 1.004] | 1 (1=0-20%) | 1 (1=0-20%) | 1 (1=0-20%) | 2 (2=21-40%) | 1 (1=0-20%) | 1 (1=0-20%) | 1 (1=0-20%) | 1 (1=0-20%) |
| Cc1noc(C)c1Cn1cc(C(F)(F)F)nc1-c1ccc(C(F)(F)F)cc1 [Compound 1.005] | 1 (1=0-20%) | 1 (1=0-20%) | 1 (1=0-20%) | 1 (1=0-20%) | 5 (5=81-100%) | 5 (5=81-100%) | 1 (1=0-20%) | 1 (1=0-20%) |
| Cc1nonc1Cn1cc(C(F)(F)F)nc1-c1ccc(C(F)(F)F)cc1 [Compound 1.006] | 1 (1=0-20%) | 1 (1=0-20%) | 1 (1=0-20%) | 1 (1=0-20%) | 1 (1=0-20%) | 1 (1=0-20%) | 1 (1=0-20%) | 1 (1=0-20%) |
| Cc1nnc(Cn2cc(C(F)(F)F)nc2-c2ccc(C(F)(F)F)cc2)s1 [Compound 1.007] | 5 (5=81-100%) | 5 (5=81-100%) | 5 (5=81-100%) | 5 (5=81-100%) | 5 (5=81-100%) | 5 (5=81-100%) | 5 (5=81-100%) | 5 (5=81-100%) |
| Cc1noc(Cn2cc(C(F)(F)F)nc2-c2ccc(C(F)(F)F)cc2)n1 [Compound 1.008] | 4 (4=61-80%) | 4 (4=61-80%) | 2 (2=21-40%) | 4 (4=61-80%) | 5 (5=81-100%) | 5 (5=81-100%) | 1 (1=0-20%) | 3 (3=41-60%) |
| FC(F)(F)c1ccc(-c2nc(C(F)(F)F)cn2Cc2ccno2)cc1 [Compound 1.009] | 1 (1=0-20%) | 2 (2=21-40%) | 1 (1=0-20%) | 3 (3=41-60%) | 1 (1=0-20%) | 1 (1=0-20%) | 1 (1=0-20%) | 1 (1=0-20%) |
| Cc1nc(Cn2cc(C(F)(F)F)nc2-c2ccc(C(F)(F)F)cc2)cs1 [Compound 1.010] | 1 (1=0-20%) | 2 (2=21-40%) | 1 (1=0-20%) | 3 (3=41-60%) | 2 (2=21-40%) | 5 (5=81-100%) | 1 (1=0-20%) | 2 (2=21-40%) |
| COCCc1noc(Cn2cc(C(F)(F)F)nc2-c2ccc(C(F)(F)F)cc2)n1 [Compound 1.011] | 1 (1=0-20%) | 1 (1=0-20%) | 1 (1=0-20%) | 1 (1=0-20%) | 1 (1=0-20%) | 1 (1=0-20%) | 1 (1=0-20%) | 1 (1=0-20%) |
| Cc1nc(Cn2cc(C(F)(F)F)nc2-c2ccc(C(F)(F)F)cc2)co1 [Compound 1.012] | 1 (1=0-20%) | 1 (1=0-20%) | 1 (1=0-20%) | 3 (3=41-60%) |  | 2 (2=21-40%) | 1 (1=0-20%) | 1 (1=0-20%) |
| Cc1cc(Cn2cc(C(F)(F)F)nc2-c2ccc(C(F)(F)F)cc2)no1 [Compound 1.013] | 5 (5=81-100%) | 4 (4=61-80%) | 4 (4=61-80%) | 4 (4=61-80%) | 5 (5=81-100%) | 5 (5=81-100%) | 5 (5=81-100%) | 5 (5=81-100%) |
| Cn1cc(Cn2cc(C(F)(F)F)nc2-c2ccc(C(F)(F)F)cc2)c(C(F)(F)F)n1 [Compound 1.014] | 1 (1=0-20%) | 1 (1=0-20%) | 1 (1=0-20%) | 1 (1=0-20%) | 1 (1=0-20%) | 1 (1=0-20%) | 1 (1=0-20%) | 1 (1=0-20%) |
| Cn1cnc(Cn2cc(C(F)F)nc2-c2cnc(Cl)c(F)c2)n1 [Compound 1.015, 2-chloro-5-[4-(difluoromethyl)-1-[(1-methyl-1,2,4-triazol-3-yl)methyl]imidazol-2-yl]-3-fluoro-pyridine] | 5 (5=81-100%) | 5 (5=81-100%) | 3 (3=41-60%) | 5 (5=81-100%) | 5 (5=81-100%) | 5 (5=81-100%) | 4 (4=61-80%) | 5 (5=81-100%) |
